Assay results published in patent publication EP3553061A1, “NEW INHIBITORS OF BONE RESORPTION” (CENTRE NATIONAL DE LA RECHERCHE SCIENTIFIQUE (CNRS), priority 2018, dated 2019).
Several values for one entry are separate records, joined by “and”; a condition that tells them apart may be missing. Equal entries are not always repeated. Where two headings read alike, the source gives them in different places.

How the values were obtained:
human Dock5 = target: T1, human Dock5 (Homo sapiens, UniProt Q9H7D0); assay: Pull down assay of Rac activation by human Dock5 DHR2 in transfected 293T cells; type: cell-based; conditions: for inhibition at 50 µM / inhibition at 100 µM: HEK-293T; for IC50: 1 hour treatment
T1 construct: plasmid expressing the catalytic DHR2 domain of mouse or human Dock5; expressed in transfected cells; host or cells: 293T cells
Experimental: (§1) Compounds E73, E88 and E78 were tested for their inhibiting effect of the activation of Rac by mouse Dock5 of and for certain human Dock5 according to a screening test using a pull down assay as represented in Figure 1.
Methodology (Figure 1): cells 293T seeded onto 100 mm diameter plates in a DMEM culture medium containing 10% serum in an incubator in 5.5% CO2 humidified atmosphere at 37°C. When they reach the density of 5x10^6 cells per plate, cells are transfected with 8 µg of plasmid expressing the catalytic DHR2 domain of mouse or human Dock5 in order to activate endogenous GTPase Rac. After 24 hours, the cells are lifted using trypsin and are seeded 10^6 per well in 6-well plates of 35 mms in diameter. The following day, the cells are put in contact during one hour with the compound, in a mother solution at 20 mM into 100% DMSO, to a test concentration of 100 µM into 0.5% DMSO in the DMEM medium containing 0.1% of BSA. The basal activation of Rac by Dock5 is measured from the cells treated with 0.5% DMSO. After treatment, the cells are observed under the optical microscope to make sure of the absence of any toxic effect of the compound. If cell suffering is detected, the test is invalidated and the compound is retested at a lower dosage. The cells are then lysed in 100 µl of the pull down buffer (10% glycerol, 50 mm Tris pH 7.4, 100 mM NaCl, 1% IGEPAL® CA-630 (SIGMA I3021), 2 mM MgCl2 supplemented with proteases inhibitors) and the lysate is incubated during one hour with 20 µg of sepharose beads coupled with the fusion protein GST-PAK-CRIB, which binds specifically the activated form of GTPase Rac, which is bound to GTP. After centrifugation and washings, the proteins associated with the beads, including active Rac GTPase, are denatured and loaded on an SDS PAGE gel. […] For each compound tested, the level of active Rac GTPase is quantified using the Image J software and is normalized to the concentration of total protein in the whole cell lysate. The efficiency of the molecule is defined by the level of active Rac after treatment compared to the level of active Rac in the cells treated with DMSO (control). An activity is considered as inhibitory if the level of Rac activation decreases by at least 10%, 20%, in particular at least 30%, 40%, and preferably at least 50% compared to the control treated with DMSO (Table 1).
The same approach was used to test the potency of molecules of the 48ED family, on the activity of human Dock5 DHR2 (Table 2). Table 2: Inhibitory activity of the compounds of the 48ED family on human Dock5 activity.

[1] = target: T2, DHR2 exchange domain of Dock5 (Homo sapiens, UniProt Q9H7D0); assay: In vitro Rac1 nucleotide exchange (mantGDP fluorescence) with purified recombinant proteins, Dock5; type: biochemical; conditions: inhibitor 20 and 60 µM
T2 construct: catalyzed by the DHR2 exchange domain of Dock5 or by the Dbl exchange domain of TRIO; made in house; host or cells: E. coli
Experimental: (§2) The effect of the molecules has been tested on the nucleotide exchange reaction by the GTPase Rac1 catalyzed by the DHR2 exchange domain of Dock5 or by the Dbl exchange domain of TRIO, using purified recombinant proteins produced in E. coli bacteria (Vives, Cres et al., 2015).
(§3) The activity of the inhibitors is measured by fluorescence spectroscopy on 96-well plates with a FlexStation 3 fluorimeter, in a reaction volume of 150 µL, without stirring, at a temperature of 26 ° C. Each plate contains 4 inhibitors at two concentrations (20 and 60 µM), 2 GEFs (DOCK5 and TRIO) and includes controls without inhibitor (1% final DMSO). The inhibitors are diluted to DMSO at an intermediate concentration of 2 or 6 mM, ie 1% final DMSO. Rac1-mantGDP (2 µM), DOCK5 or TRIO (0,2 µM) and the inhibitors are mixed immediately before the beginning of measurements. The exchange reaction is triggered by series of 8 wells in parallel by addition of 100 µM of GTP with mixing by pipetting (Flex mode). The kinetics is followed during 800 seconds. All the measurements are made in duplicate on the same plate. The total playing time of a plate is about 80 minutes. The kinetics of exchange are analyzed with a mono-exponential model F = F0 + ΔFe - kt with the KaleidaGraph ™ software, where F0 is the initial fluorescence and k (or kobs) is the exchange rate constant.

[2] = target: T3, Dbl exchange domain of TRIO (Homo sapiens, UniProt O75962); assay: In vitro Rac1 nucleotide exchange (mantGDP fluorescence) with purified recombinant proteins, TRIO; type: biochemical; conditions: inhibitor 20 and 60 µM
T3 construct: catalyzed by the DHR2 exchange domain of Dock5 or by the Dbl exchange domain of TRIO; made in house; host or cells: E. coli
Experimental: as §2, §3

ovariectomized mice = assay: Bone dynamics parameters in ovariectomized mice; type: in vivo, mouse; conditions: OVX mice
Experimental: The ovariectomized mouse was used as an in vivo model of pathological bone loss. […] Each group contained ten female C57BL/6J mice that were fourteen weeks of age at the beginning of in-life phase of the study. At the beginning of the in-life phase (at study day 0), mice were weighed and their surgical ovariectomy (OVX) and control (SHAM) operations were performed under analgesia and anaesthesia. […] was injected intra peritoneally (i.p.) to OVX animals, 20 mg/kg once (q.d., dose 1) or twice (b.i.d., dose 2) daily for 25 days, in a vehicle solution containing 0.485% carboxymethylcellulose (CMC) and 3% Tween 80. Control mice received the same volume of vehicle. The effects of treatment with reference compound zoledronate (100 μg/kg, subcutaneously, twice a week.) were studied by comparing OVX mice treated with zoledronate and vehicle with OVX control mice treated with vehicle. At study days 21 and 26, bone was labelled with subcutaneous injections of oxytetracycline and calcein green, respectively, in order to enable the analysis of optional dynamic parameters in bone histomorphometry. Blood for serum samples were harvested from saphenous vein at days -1, 13 and 27 of the study for bone dynamics marker dosage.

[3] = cited from earlier work
mouse Dock5 = target: T4, mouse Dock5 (Mus musculus, UniProt B2RY04); assay: Pull down assay of Rac activation by mouse Dock5 DHR2 in transfected 293T cells; type: cell-based
T4 construct: plasmid expressing the catalytic DHR2 domain of mouse or human Dock5; expressed in transfected cells; host or cells: 293T cells
Experimental: as §1
Methodology (Figure 1): cells 293T seeded onto 100 mm diameter plates in a DMEM culture medium containing 10% serum in an incubator in 5.5% CO2 humidified atmosphere at 37°C. When they reach the density of 5x10^6 cells per plate, cells are transfected with 8 µg of plasmid expressing the catalytic DHR2 domain of mouse or human Dock5 in order to activate endogenous GTPase Rac. After 24 hours, the cells are lifted using trypsin and are seeded 10^6 per well in 6-well plates of 35 mms in diameter. The following day, the cells are put in contact during one hour with the compound, in a mother solution at 20 mM into 100% DMSO, to a test concentration of 100 µM into 0.5% DMSO in the DMEM medium containing 0.1% of BSA. The basal activation of Rac by Dock5 is measured from the cells treated with 0.5% DMSO. […] If cell suffering is detected, the test is invalidated and the compound is retested at a lower dosage. […] For each compound tested, the level of active Rac GTPase is quantified using the Image J software and is normalized to the concentration of total protein in the whole cell lysate. […]

[4] = Table 3, human Dock5, test concentration 100 µM, 1 hour, replicate values, 100 µM
[5] = 20 mg/kg, i.p., b.i.d., first two weeks of in-life phase, vs OVX vehicle
[6] = 20 mg/kg, i.p., q.d. and b.i.d., study day 28, vs OVX vehicle
[7] = 20 mg/kg, i.p., q.d. and b.i.d, study day 28
[8] = Table 3, human Dock5, test concentration 100 µM, 1 hour, replicate values, read-out: Inhibition
[9] = zoledronate 100 µg/kg, subcutaneously, twice a week, study day 28, vs OVX vehicle

T1 sequence (Q9H7D0 1231-1642 limits assumed): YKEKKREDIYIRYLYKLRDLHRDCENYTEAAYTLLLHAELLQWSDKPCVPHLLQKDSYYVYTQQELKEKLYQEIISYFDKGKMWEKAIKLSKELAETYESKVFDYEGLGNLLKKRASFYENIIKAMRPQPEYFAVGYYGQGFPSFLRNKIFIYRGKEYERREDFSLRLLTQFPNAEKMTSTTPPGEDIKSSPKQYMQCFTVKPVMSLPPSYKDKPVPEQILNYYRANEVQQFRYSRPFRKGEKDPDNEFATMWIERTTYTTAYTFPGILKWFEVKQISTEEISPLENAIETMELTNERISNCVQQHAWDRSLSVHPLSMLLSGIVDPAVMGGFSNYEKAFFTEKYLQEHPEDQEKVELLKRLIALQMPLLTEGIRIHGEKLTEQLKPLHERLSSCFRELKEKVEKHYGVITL
T2 sequence (Q9H7D0 1231-1642 limits assumed): as above
T4 sequence (B2RY04 1231-1642 limits assumed): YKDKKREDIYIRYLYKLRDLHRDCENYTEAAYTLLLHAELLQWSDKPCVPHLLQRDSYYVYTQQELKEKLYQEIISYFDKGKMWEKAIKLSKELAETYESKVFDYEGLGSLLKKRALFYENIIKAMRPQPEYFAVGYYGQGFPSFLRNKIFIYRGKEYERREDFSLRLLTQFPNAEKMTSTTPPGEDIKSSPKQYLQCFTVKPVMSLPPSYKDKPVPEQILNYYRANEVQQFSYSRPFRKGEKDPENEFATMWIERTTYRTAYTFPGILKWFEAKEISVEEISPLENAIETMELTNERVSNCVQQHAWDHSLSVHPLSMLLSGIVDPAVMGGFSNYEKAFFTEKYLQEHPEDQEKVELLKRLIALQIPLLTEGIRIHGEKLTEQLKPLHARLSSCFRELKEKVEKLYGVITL

O=S1(=O)N(c2ccccc2)C[C@H](O)[C@]12CCN(Cc1ccc(Cl)cc1)C2 (racemic) [E197, rac-(4S,5R)-7-(4-chlorobenzyl)-4-hydroxy-2-phenyl-1-thia-2,7-diazaspiro[4.4]nonane 1,1-dioxide]
inhibition at 50 µM (human Dock5; Table 3, human Dock5, at 50µM): 80% | Inhibition (human Dock5; [4]): 55% and 90% | IC50 (human Dock5; human Dock5): 36 µM | effect on the nucleotide exchange reaction of Rac1 catalyzed by Dock5 [1]: inhibit Dock 5 | effect on the nucleotide exchange reaction of Rac1 catalyzed by TRIO [2]: not TRIO | trabecular separation (Tb.Sp) (ovariectomized mice; 20 mg/kg, i.p., b.i.d., bone histomorphometry, study day 28, vs OVX vehicle): decreased | relative change in serum PINP levels (ovariectomized mice; 20 mg/kg, i.p., b.i.d., entire in-life phase, vs OVX vehicle): decreased | relative change in serum CTX-I levels (ovariectomized mice; [5]): decreased | relative change in serum PINP levels (ovariectomized mice; [5]): decreased | trabecular bone volume fraction (BV/TV) in femoral and tibial metaphyses (ovariectomized mice; 20 mg/kg, i.p., b.i.d., study day 28, vs OVX vehicle): increased | trabecular number (Tb.N) in tibial metaphysis (ovariectomized mice; 20 mg/kg, i.p., b.i.d., µCT, study day 28, vs OVX vehicle): increased | serum levels of bone turnover biomarker osteoclacin (ovariectomized mice; 20 mg/kg, i.p., q.d. and b.i.d., entire in-life phase): did not decreased | cortical bone specific surface (BS/BV) in tibial diaphysis (ovariectomized mice; [6]): decreased | cortical thickness (Ct.Th) in tibial diaphysis (ovariectomized mice; [6]): increased | mineral apposition rate (MAR) in trabecular bone in femoral metaphysis (ovariectomized mice; [7]): did not decreased | mineralizing surface per bone surface (MS/BS) in trabecular bone in femoral metaphysis (ovariectomized mice; [7]): did not decreased | body weight (ovariectomized mice; in-life phase (day 0 to day 28)): did not affect body weight

O=S1(=O)N(c2ccccc2)C[C@H](O)[C@]12CCN(Cc1ccc(Cl)c(Cl)c1)C2 (racemic) [E202, rac-(4S,5R)-7-(3,4-dichlorobenzyl)-4-hydroxy-2-phenyl-1-thia-2,7-diazaspiro[4.4]nonane 1,1-dioxide]
inhibition at 50 µM (human Dock5; Table 3, human Dock5, at 50µM): 95% | Inhibition (human Dock5; Table 3, human Dock5, at 50µM): 90% | IC50 (human Dock5; human Dock5): 29 µM | effect on the nucleotide exchange reaction of Rac1 catalyzed by Dock5 [1]: inhibit Dock 5 | effect on the nucleotide exchange reaction of Rac1 catalyzed by TRIO [2]: not TRIO

O=S(=O)(Nc1cc(Cl)cc(Cl)c1)c1ccccc1 [C21, N-(3,5-dichlorophenyl)-benzenesulfonamide]
bone formation ([3]; mice treated daily along 4 weeks): Bone formation is maintained | histological observation of all tissues ([3]; mice): did not reveal any anomaly | development of bone metastases ([3]; mouse): reduces the development of bone metastases | bone resorption ([3]; mouse, postmenopausal osteoporosis, inflammatory and metastasis-induced bone loss models, intravenous or intraperitoneal administration): inhibits effectively the bone resorption

O=S1(=O)N(c2ccccc2)C[C@H](O)[C@]12CCN(Cc1cccc(Cl)c1)C2 [E73]
inhibition at 100 µM (mouse Dock5; HEK-293T, 100 µM, species of Dock5 not given): ~95% | IC50 (mouse Dock5; mouse DHR2 of Dock5): 17 µM | inhibition at 100 µM (human Dock5; Table 1a, test concentration 100 µM, 1 hour, replicate values, Negative = Rac activation does not decrease, read-out: Inhibition Dock5 (%) Human): 70% | Inhibition Dock5 (%) Human (human Dock5; Table 1a, test concentration 100 µM, 1 hour, replicate values, Negative = Rac activation does not decrease, 100 µM): 60% and 55% | Inhibition (human Dock5; Table 2, human Dock5 DHR2, test concentration 100 µM, 1 hour, replicate values, Negative = Rac activation does not decrease, 100 µM): 55% and 95% (3×) and 50% and 90% (2×) | IC50 (human Dock5; human Dock5): 36 µM

CCOC(=O)CO[C@H]1CN(c2ccccc2)S(=O)(=O)[C@@]12CCN(Cc1ccccc1)C2 [E231]
inhibition at 50 µM (human Dock5; Table 3, human Dock5, at 50µM): 70%

O=C(O)CO[C@H]1CN(c2ccccc2)S(=O)(=O)[C@@]12CCN(Cc1ccccc1)C2 [E232]
Inhibition (human Dock5; [4]): 40% (2×) and 10%

O=S1(=O)N(C2CCCCC2)C[C@H](O)[C@]12CCN(Cc1ccccc1)C2 [E233]
inhibition at 100 µM (human Dock5; [8]): 70% | Inhibition (human Dock5; [4]): 60%

O=S1(=O)N(C2CCCCC2)C[C@@H](O)[C@]12CCN(Cc1ccccc1)C2 [E234]
Inhibition (human Dock5; [4]): 85% and 55% and 40% and 60%

O=S1(=O)N(c2cccc(Cl)c2)C[C@H](O)[C@]12CCN(Cc1ccccc1)C2 [E235]
inhibition at 100 µM (human Dock5; [8]): 80% | Inhibition (human Dock5; [4]): 85%

O=S1(=O)N(c2cccc(Cl)c2)C[C@@H](O)[C@]12CCN(Cc1ccccc1)C2 [E236]
inhibition at 50 µM (human Dock5; Table 3, human Dock5, at 50µM): 20% | inhibition at 100 µM (human Dock5; [8]): 70%

O=P(O)(O)C(O)(Cn1ccnc1)P(=O)(O)O [Zoledronate, reference compound]
relative change in serum osteoclacin levels (ovariectomized mice; zoledronate 100 µg/kg, subcutaneously, twice a week, in-life phase, vs OVX vehicle): decreased | mineral apposition rate (MAR) in trabecular bone in femoral metaphysis (ovariectomized mice; [9]): decreased | mineralizing surface per bone surface (MS/BS) in trabecular bone in femoral metaphysis (ovariectomized mice; [9]): decreased
